Source: ChEMBL document CHEMBL1139011, “Inhibition of hepatitis B virus (HBV) replication by pyrimidines bearing an acyclic moiety: effect on wild-type and mutant HBV” (J Med Chem, 2006)

Experiments:
[1] = system: Hepatitis B virus; assay: Inhibition of HBV M204I mutant transfected in B1 cell line at 10 ug/mL; format: functional
[2] = system: HepG2; assay: Cytotoxicity against HepG2 cell by MTT assay; format: functional; settings: Homo sapiens
[3] = system: Hepatitis B virus; assay: Inhibition of HBV M204I mutant transfected in B1 cell line; format: functional, organism-based
[4] = system: Hepatitis B virus; assay: Inhibition of HBV L180M/ M204V mutant transfected in D88 cell line at 10 ug/mL; format: functional
[5] = system: Hepatitis B virus; assay: Inhibition of HBV L180M/ M204V mutant transfected in D88 cell line; format: functional, organism-based
[6] = system: Duck hepatitis B virus; assay: Inhibition of duck HBV transfected in primary duck hepatocytes at 10 ug/mL; format: functional; settings: Hepatocyte
[7] = system: Hepatitis B virus; assay: Inhibition of wild type HBV transfected in human hepatoblastoma 2.2.15 cells; format: functional, organism-based; settings: HepG2 2.2.15
[8] = system: Hepatitis B virus; assay: Inhibition of wild type HBV transfected in human hepatoblastoma 2.2.15 cells at 10 ug/mL; format: functional; settings: HepG2 2.2.15
[9] = system: Vero; assay: Cytotoxicity against Vero cell by MTT assay; format: functional; settings: Chlorocebus sabaeus
[10] = system: Duck hepatitis B virus; assay: Inhibition of duck HBV transfected in primary duck hepatocytes; format: functional, organism-based; settings: Hepatocyte
[11] = system: West Nile virus; assay: Inhibitory activity against West Nile virus; format: functional, organism-based

Row | Compound | inhibition at 10 µg/mL [1] | CC50 [2] | EC50 [3] | inhibition at 10 µg/mL [4] | EC50 [5] | inhibition at 10 µg/mL [6] | EC50 [7] | inhibition at 10 µg/mL [8] | CC50 [9] | EC50 [10] | EC50 [11]
1 | O=c1[nH]c(=O)n(COCCO)cc1Cl | 69% | > 454 µM | 4.5 µM | 70% | 4.5 µM | 94% | 4.5 µM | 82% | > 454 µM | 0.4 µM | –
2 | O=c1[nH]c(=O)n(COCCO)cc1C(F)(F)F | 53% | > 393 µM | 39.3 µM | 50% | 39.3 µM | 76% | 19.6 µM | 55% | > 393 µM | 3.9 µM | –
3 | O=c1[nH]c(=O)n(COCCO)cc1I | – | > 320 µM | – | – | – | 50% | – | – | > 320 µM | 32 µM | –
4 | Cc1c(I)c(=O)[nH]c(=O)n1COCCO | 30% | > 306 µM | – | 25% | – | 51% | 30.6 µM | 53% | > 306 µM | 30.6 µM | –
5 | O=c1[nH]c(=O)n(COCCO)cc1CO | 0% | > 476 µM | – | 30% | – | 55% | 23.8 µM | 50% | > 476 µM | 47.6 µM | –
6 | CCOC(=O)c1cn(COCCO)c(=S)[nH]c1=O | 20% | > 364 µM | – | 0% | – | 53% | 18.2 µM | 50% | > 364 µM | 36.4 µM | –
7 | O=c1ccn(COCCO)c(=S)[nH]1 | 30% | > 495 µM | – | 0% | – | 46% | > 49.5 µM | 42% | > 495 µM | > 49.5 µM | –
8 | Cc1cc(=O)[nH]c(=O)n1COCCO | 30% | > 500 µM | – | 0% | – | 60% | 25 µM | 55% | > 500 µM | 25 µM | –
9 | Nc1cn(COCCO)c(=O)[nH]c1=O | 30% | > 497 µM | – | 30% | – | 65% | 50 µM | 50% | > 497 µM | 5 µM | –
10 | O=c1[nH]c(=O)n(COCCO)cc1Br | 67% | > 377 µM | 18.5 µM | 73% | 3.7 µM | 89% | 18.5 µM | 60% | > 377 µM | 3.7 µM | –
11 | O=c1[nH]c(=O)n(COCCO)cc1[N+](=O)[O-] | 30% | > 432 µM | – | 0% | – | 53% | 43.2 µM | 54% | > 432 µM | 43.2 µM | > 134 µM
12 | COC(=O)c1cc(=O)[nH]c(=O)n1COCCO | 0% | > 409 µM | – | 0% | – | 56% | 40.9 µM | 60% | > 409 µM | 40.9 µM | –
13 | O=c1cnn(COCCO)c(=O)[nH]1 | – | > 534 µM | – | – | – | 25% | > 53 µM | 25% | > 534 µM | > 53 µM | –
14 | CCc1cn(COCCO)c(=S)[nH]c1=O | 20% | > 478 µM | – | 40% | > 47.8 µM | 45% | > 47.8 µM | 40% | > 478 µM | > 47.8 µM | –
15 | Cc1c([N+](=O)[O-])c(=O)[nH]c(=O)n1COCCO | 25% | > 408 µM | – | 20% | – | 68% | 20.4 µM | 60% | > 408 µM | 20.4 µM | –
16 | Nc1nc(NC2CC2)c2ncn([C@H]3C=C[C@@H](CO)C3)c2n1 [ABACAVIR] | 80% | – | 3.4 µM | 72% | 3.4 µM | – | – | – | – | – | –
17 | Nc1ccn([C@@H]2CS[C@H](CO)O2)c(=O)n1 [LAMIVUDINE] | 45% | – | > 44 µM | 30% | – | 96% | 2.1 µM | 88% | – | 0.04 µM | –
